Results from ChEMBL document CHEMBL5212743, “Selectivity Literature for EUbOPEN Chemogenomics Library wave 3” (2023).

Legend:
[1] = biological target: Serine/threonine-protein kinase PLK3 (Homo sapiens, UniProt Q9H4B4); test: Selectivity interaction (Enzymatic assay) EUB0000608a PLK3
[2] = biological target: Serine/threonine-protein kinase PLK1 (Homo sapiens, UniProt P53350); test: Selectivity interaction (Enzymatic assay) EUB0000608a PLK1
[3] = biological target: Serine/threonine-protein kinase 33 (Homo sapiens, UniProt Q9BYT3); test: Selectivity interaction (Enzymatic assay) EUB0000608a STK33
Serine/threonine-protein kinase 33, sequence (Q9BYT3 whole entry): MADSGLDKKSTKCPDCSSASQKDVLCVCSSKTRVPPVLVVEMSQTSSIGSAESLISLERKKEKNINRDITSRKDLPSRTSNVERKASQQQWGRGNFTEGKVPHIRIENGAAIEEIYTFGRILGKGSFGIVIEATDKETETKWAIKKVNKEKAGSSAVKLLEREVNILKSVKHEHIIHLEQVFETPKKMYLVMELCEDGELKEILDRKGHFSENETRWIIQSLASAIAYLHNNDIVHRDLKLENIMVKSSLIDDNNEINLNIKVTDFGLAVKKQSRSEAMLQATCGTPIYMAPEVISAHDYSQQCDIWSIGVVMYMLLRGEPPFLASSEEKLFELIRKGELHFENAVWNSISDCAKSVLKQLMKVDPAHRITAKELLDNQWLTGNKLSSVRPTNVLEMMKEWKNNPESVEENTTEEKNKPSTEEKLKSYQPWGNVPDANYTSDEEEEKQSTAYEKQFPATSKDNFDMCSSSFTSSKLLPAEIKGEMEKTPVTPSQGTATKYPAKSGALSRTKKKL

[4] = biological target: Cyclin-G-associated kinase (Homo sapiens, UniProt O14976); test: Selectivity interaction (Enzymatic assay) EUB0000608a GAK
Cyclin-G-associated kinase, sequence (O14976 whole entry): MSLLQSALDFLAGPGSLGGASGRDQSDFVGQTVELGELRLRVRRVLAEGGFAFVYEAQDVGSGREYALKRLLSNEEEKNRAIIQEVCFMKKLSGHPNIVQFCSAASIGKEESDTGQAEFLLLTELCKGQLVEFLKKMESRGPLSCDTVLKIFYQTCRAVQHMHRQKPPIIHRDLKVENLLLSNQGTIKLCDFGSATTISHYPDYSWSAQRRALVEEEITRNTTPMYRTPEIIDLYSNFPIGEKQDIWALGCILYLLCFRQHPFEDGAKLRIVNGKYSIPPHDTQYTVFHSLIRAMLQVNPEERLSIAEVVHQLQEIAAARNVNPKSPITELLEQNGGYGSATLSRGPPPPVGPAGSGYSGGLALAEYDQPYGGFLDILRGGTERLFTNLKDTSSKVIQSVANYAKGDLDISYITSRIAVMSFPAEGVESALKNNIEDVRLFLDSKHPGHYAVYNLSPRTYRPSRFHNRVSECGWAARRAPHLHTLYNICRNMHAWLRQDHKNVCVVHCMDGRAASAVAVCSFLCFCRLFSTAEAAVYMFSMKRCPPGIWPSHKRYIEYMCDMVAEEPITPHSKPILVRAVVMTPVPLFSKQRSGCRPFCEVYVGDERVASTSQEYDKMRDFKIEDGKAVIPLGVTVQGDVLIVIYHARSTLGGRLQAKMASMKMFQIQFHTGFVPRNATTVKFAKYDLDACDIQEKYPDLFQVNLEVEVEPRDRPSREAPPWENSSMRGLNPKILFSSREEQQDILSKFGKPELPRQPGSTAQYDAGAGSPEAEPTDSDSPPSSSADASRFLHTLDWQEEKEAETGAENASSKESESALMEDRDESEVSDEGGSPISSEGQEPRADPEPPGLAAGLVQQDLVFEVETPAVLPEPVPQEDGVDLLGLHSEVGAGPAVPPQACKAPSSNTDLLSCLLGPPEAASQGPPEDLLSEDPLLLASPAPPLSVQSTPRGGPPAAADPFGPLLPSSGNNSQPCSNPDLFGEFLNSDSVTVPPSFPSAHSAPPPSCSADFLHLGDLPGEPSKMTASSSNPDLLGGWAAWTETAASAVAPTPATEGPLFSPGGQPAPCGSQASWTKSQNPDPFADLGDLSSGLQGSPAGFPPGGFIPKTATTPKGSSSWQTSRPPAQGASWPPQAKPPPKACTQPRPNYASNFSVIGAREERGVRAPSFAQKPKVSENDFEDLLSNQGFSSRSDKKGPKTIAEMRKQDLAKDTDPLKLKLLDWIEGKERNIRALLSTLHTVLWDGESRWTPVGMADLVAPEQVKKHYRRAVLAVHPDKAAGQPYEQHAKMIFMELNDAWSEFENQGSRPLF

[5] = biological target: Serine/threonine-protein kinase PLK4 (Homo sapiens, UniProt O00444); test: Selectivity interaction (Enzymatic assay) EUB0000608a PLK4
Serine/threonine-protein kinase PLK4, sequence (O00444 whole entry): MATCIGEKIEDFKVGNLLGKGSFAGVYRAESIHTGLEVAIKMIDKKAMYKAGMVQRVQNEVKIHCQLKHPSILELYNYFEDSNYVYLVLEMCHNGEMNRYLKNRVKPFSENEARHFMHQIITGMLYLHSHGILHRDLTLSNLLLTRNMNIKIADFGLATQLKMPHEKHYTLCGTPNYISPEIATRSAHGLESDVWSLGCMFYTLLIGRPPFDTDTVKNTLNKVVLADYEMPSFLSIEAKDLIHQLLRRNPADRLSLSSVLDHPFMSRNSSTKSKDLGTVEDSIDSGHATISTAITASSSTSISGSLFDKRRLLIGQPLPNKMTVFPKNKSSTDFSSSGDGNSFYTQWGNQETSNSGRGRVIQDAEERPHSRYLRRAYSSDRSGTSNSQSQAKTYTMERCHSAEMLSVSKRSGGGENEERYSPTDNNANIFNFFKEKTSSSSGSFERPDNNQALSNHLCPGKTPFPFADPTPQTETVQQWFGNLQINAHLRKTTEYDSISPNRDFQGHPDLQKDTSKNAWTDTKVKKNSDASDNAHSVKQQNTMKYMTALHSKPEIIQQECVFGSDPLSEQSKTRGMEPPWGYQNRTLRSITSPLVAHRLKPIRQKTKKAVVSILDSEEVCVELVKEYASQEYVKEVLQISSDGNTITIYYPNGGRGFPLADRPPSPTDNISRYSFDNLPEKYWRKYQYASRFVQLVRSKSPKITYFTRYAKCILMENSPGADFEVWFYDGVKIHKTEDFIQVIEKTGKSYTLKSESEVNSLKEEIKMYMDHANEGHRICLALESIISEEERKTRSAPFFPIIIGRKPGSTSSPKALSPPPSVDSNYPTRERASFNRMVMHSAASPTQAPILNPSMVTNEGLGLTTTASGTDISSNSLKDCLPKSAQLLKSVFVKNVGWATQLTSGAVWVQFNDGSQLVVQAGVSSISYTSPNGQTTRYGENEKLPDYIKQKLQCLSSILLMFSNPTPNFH

Serine/threonine-protein kinase PLK1, sequence (P53350 whole entry): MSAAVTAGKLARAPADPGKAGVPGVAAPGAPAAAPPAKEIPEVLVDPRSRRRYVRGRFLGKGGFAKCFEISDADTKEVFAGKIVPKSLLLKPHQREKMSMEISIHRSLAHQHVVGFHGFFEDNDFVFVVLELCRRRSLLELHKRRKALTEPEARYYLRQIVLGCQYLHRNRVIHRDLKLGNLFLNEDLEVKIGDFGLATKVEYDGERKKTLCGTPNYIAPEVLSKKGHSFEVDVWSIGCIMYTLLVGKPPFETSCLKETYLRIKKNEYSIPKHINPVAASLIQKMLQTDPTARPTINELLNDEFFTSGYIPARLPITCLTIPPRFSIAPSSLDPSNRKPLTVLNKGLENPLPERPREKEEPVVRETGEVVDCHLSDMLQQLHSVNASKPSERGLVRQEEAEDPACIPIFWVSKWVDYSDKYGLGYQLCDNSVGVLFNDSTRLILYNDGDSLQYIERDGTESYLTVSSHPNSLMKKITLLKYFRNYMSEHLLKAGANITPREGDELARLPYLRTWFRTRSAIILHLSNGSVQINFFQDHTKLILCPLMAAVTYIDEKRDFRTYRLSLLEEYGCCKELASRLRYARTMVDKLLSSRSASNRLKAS
Serine/threonine-protein kinase PLK3, sequence (Q9H4B4 whole entry): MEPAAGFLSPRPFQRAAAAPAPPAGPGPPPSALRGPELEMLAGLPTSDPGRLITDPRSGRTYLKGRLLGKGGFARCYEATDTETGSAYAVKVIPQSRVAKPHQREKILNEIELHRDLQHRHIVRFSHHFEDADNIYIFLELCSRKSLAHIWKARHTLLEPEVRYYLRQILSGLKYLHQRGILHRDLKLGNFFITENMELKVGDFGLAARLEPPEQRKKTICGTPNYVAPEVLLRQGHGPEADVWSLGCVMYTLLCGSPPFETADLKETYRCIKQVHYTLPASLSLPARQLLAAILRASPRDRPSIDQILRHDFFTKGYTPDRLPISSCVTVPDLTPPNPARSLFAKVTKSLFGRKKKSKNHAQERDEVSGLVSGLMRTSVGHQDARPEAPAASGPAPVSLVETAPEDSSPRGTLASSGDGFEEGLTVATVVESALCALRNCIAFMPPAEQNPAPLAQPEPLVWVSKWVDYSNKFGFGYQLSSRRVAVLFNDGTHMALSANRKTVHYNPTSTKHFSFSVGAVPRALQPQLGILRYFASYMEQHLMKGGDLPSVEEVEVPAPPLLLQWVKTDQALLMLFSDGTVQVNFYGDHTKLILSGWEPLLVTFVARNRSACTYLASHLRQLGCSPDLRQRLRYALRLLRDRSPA

IC50 [1]: 1600 nM
IC50 [2]: 61 nM
IC50 [3]: 5000 nM
IC50 [4]: 140 nM
IC50 [5]: 3100 nM
Compound: CCOc1cc(N2CCC(O)CC2)ccc1Nc1ncc2c(n1)N(C1CCCC1)CCC(=O)N2C
